Experiments:
[1] = tested on: AMARE; assay: greenhouse post-emergence herbicidal test; format: in vivo, Amaranthus retroflexus; settings: post-emergence method, application rate 500 g/ha, scale from 0 to 100
Source text: (§1) The culture containers used were plastic flowerpots containing loamy sand with approximately 3.0% of humus as the substrate. The seeds of the test plants were sown separately for each species.
(§2) For the post-emergence treatment, the test plants were first grown to a height of 3 to 15 cm, depending on the plant habit, and only then treated with the active ingredients which had been suspended or emulsified in water. For this purpose, the test plants were either sown directly and grown in the same containers, or they were first grown separately as seedlings and transplanted into the test containers a few days prior to treatment.
(§3) Depending on the species, the plants were kept at 10-25° C. or 20-35° C., respectively. The test period extended over 2 to 4 weeks. During this time, the plants were tended, and their response to the individual treatments was evaluated.
(§4) Evaluation was carried out using a scale from 0 to 100. 100 means no emergence of the plants, or complete destruction of at least the aerial moieties, and 0 means no damage, or normal course of growth. A good herbicidal activity is given at values of at least 80 and a very good herbicidal activity is given at values of at least 90.
(§5) The plants used in the greenhouse experiments were of the following species: […]

[2] = tested on: ABUTH; assay: greenhouse post-emergence herbicidal test; format: in vivo, Abutilon theophrasti; settings: post-emergence method, application rate 500 g/ha, scale from 0 to 100
Source text: as §1, §2, §3, §4, §5

[3] = tested on: SETVI; assay: greenhouse post-emergence herbicidal test; format: in vivo, Setaria viridis; settings: application rate 500 g/ha, scale from 0 to 100; for herbicidal activity against SETVI: post-emergence method; for damages, unwanted plants SETVI: post-emergence application, greenhouse
Source text: as §1, §2, §3, §4, §5

[4] = tested on: AVEFA; assay: greenhouse post-emergence herbicidal test; format: in vivo, Avena fatua; settings: application rate 500 g/ha, scale from 0 to 100; for damages, unwanted plants AVEFA: post-emergence application, greenhouse
Source text: as §1, §2, §3, §4, §5

[5] = tested on: SETFA; assay: greenhouse pre-emergence herbicidal test; format: in vivo, Setaria faberi; settings: pre-emergence method, application rate 500 g/ha, scale from 0 to 100
Source text: as §1
(§6) For the pre-emergence treatment, the active ingredients, which had been suspended or emulsified in water, were applied directly after sowing by means of finely distributing nozzles. The containers were irrigated gently to promote germination and growth and subsequently covered with transparent plastic hoods until the plants had rooted. This cover caused uniform germination of the test plants, unless this had been impaired by the active ingredients.
as §3, §4, §5

[6] = tested on: ECHCG; assay: greenhouse post-emergence herbicidal test; format: in vivo, Echinocloa crus-galli; settings: post-emergence method, application rate 500 g/ha, scale from 0 to 100
Source text: as §1, §2, §3, §4, §5

[7] = tested on: CHEAL; assay: greenhouse post-emergence herbicidal test; format: in vivo, Chenopodium album; settings: post-emergence application, application rate 8 g/ha, scale from 0 to 100
Source text: as §1, §2, §3, §4, §5

[8] = tested on: RAPRA; assay: greenhouse post-emergence herbicidal test; format: in vivo, Raphanus raphanistrum; settings: post-emergence application, application rate 8 g/ha, scale from 0 to 100
Source text: as §1, §2, §3, §4, §5

[9] = tested on: ALOMY; assay: greenhouse post-emergence herbicidal test; format: in vivo, Alopercurus myosuroides; settings: post-emergence application, application rate 500 g/ha, scale from 0 to 100
Source text: as §1, §2, §3, §4, §5

[10] = tested on: SEBEX; assay: greenhouse post-emergence herbicidal test; format: in vivo, Sesbania exaltata; settings: post-emergence application, application rate 8 g/ha, scale from 0 to 100
Source text: as §1, §2, §3, §4, §5

[11] = tested on: AMARE; assay: greenhouse pre-emergence herbicidal test; format: in vivo, Amaranthus retroflexus; settings: pre-emergence method, application rate 500 g/ha, scale from 0 to 100
Source text: as §1, §6, §3, §4, §5

SMILES: CC(=CC(=O)NCC(F)(F)C(F)(F)C(F)(F)F)CC1OCC(CC2OC2C(C)C(C)O)C2OC(C)(C)OC12 (stereo not shown) [compound 19]
- herbicidal activity against AMARE [1]: very good herbicidal activity (a very good herbicidal activity is given at values of at least 90)

SMILES: CC(=O)[C@H](C)[C@@H]1O[C@H]1C[C@H]1CO[C@@H](C/C(C)=C/C(=O)NCC(F)(F)F)[C@H](O)[C@@H]1O [compound 43]
- herbicidal activity against ABUTH [2]: very good herbicidal activity (a very good herbicidal activity is given at values of at least 90)
- herbicidal activity against SETVI [3]: very good herbicidal activity (a very good herbicidal activity is given at values of at least 90)
- herbicidal activity against AVEFA ([4]; post-emergence method): very good herbicidal activity (a very good herbicidal activity is given at values of at least 90)

SMILES: C/C(=C\C(=O)NCC#CC(C)(C)C)C[C@@H]1OC[C@H](C[C@@H]2O[C@H]2[C@@H](C)[C@H](C)O)[C@@H](O)[C@H]1O [compound 29]
- herbicidal activity against SETFA [5]: good herbicidal activity (A good herbicidal activity is given at values of at least 80)

SMILES: CCOC1OC2C(CC3OC3C(C)C(C)O)COC(CC(C)=CC(=O)NCC(F)(F)F)C2O1 (mixture of isomers) [compound 20]
- herbicidal activity against ABUTH [2]: very good herbicidal activity (a very good herbicidal activity is given at values of at least 90)
- herbicidal activity against AMARE [1]: very good herbicidal activity (a very good herbicidal activity is given at values of at least 90)
- herbicidal activity against ECHCG [6]: very good herbicidal activity (a very good herbicidal activity is given at values of at least 90)

SMILES: C/C(=C\C(=O)NCCO)C[C@@H]1OC[C@H](C[C@@H]2O[C@H]2[C@@H](C)[C@H](C)O)[C@@H](O)[C@H]1O [cmpd 77 (WO 93/19599), reference compound]
- damages, unwanted plants SETVI [3]: 85
- damages, unwanted plants AVEFA [4]: 50
- damages, unwanted plants CHEAL [7]: 75
- damages, unwanted plants RAPRA [8]: 85
- damages, unwanted plants ALOMY [9]: 70
- damages, unwanted plants SEBEX [10]: 65

SMILES: CC(=CC(=O)N1CCSC1=O)CC1OCC(CC2OC2C(C)C(C)O)C2OC(C)(C)OC12 (stereo not shown) [compound 39]
- herbicidal activity against ABUTH [2]: very good herbicidal activity (a very good herbicidal activity is given at values of at least 90)
- herbicidal activity against SETVI [3]: very good herbicidal activity (a very good herbicidal activity is given at values of at least 90)

SMILES: C/C(=C\C(=O)NCCF)C[C@@H]1OC[C@H](C[C@@H]2O[C@H]2[C@@H](C)[C@H](C)O)[C@@H](O)[C@H]1O [compound 1]
- damages, unwanted plants SETVI [3]: 100
- damages, unwanted plants CHEAL [7]: 100
- damages, unwanted plants RAPRA [8]: 100
- damages, unwanted plants ALOMY [9]: 100

SMILES: C/C(=C\C(=O)N1CCSC1=O)C[C@@H]1OC[C@H](C[C@@H]2O[C@H]2[C@@H](C)[C@H](C)O)[C@@H](O)[C@H]1O [compound 37]
- herbicidal activity against ABUTH [2]: very good herbicidal activity (a very good herbicidal activity is given at values of at least 90)
- herbicidal activity against AMARE [1]: good herbicidal activity (A good herbicidal activity is given at values of at least 80)
- herbicidal activity against SETVI [3]: very good herbicidal activity (a very good herbicidal activity is given at values of at least 90)
- herbicidal activity against ECHCG [6]: good herbicidal activity (A good herbicidal activity is given at values of at least 80)

SMILES: C#CCNC(=O)/C=C(\C)C[C@@H]1OC[C@H](C[C@@H]2O[C@H]2[C@@H](C)[C@H](C)O)[C@@H](O)[C@H]1O [compound 26, (E)-4-[(2S,3R,4R,5S)-3,4-dihydroxy-5-[[(2S,3S)-3-[(1S,2S)-2-hydroxy-1-methyl-propyl]oxiran-2-yl]methyl]tetrahydropyran-2-yl]-3-methyl-N-prop-2-ynyl-but-2-enamide]
- damages, unwanted plants SETVI [3]: 100
- damages, unwanted plants AVEFA [4]: 98
- damages, unwanted plants CHEAL [7]: 100
- damages, unwanted plants RAPRA [8]: 100
- damages, unwanted plants ALOMY [9]: 95
- damages, unwanted plants SEBEX [10]: 100

SMILES: C/C(=C\C(=O)NCC(F)(F)C(F)(F)C(F)(F)F)C[C@@H]1OC[C@H](C[C@@H]2O[C@H]2[C@@H](C)[C@H](C)O)[C@@H](O)[C@H]1O [compound 9]
- herbicidal activity against AMARE [1]: very good herbicidal activity (a very good herbicidal activity is given at values of at least 90)
- herbicidal activity against SETVI [3]: very good herbicidal activity (a very good herbicidal activity is given at values of at least 90)
- herbicidal activity against ECHCG [6]: good herbicidal activity (A good herbicidal activity is given at values of at least 80)

SMILES: C#CCNC(=O)C=C(C)CC1OCC(CC2OC2C(C)C(C)O)C2OC(OCC)OC12 (stereo not shown) [compound 33]
- herbicidal activity against AMARE [11]: good herbicidal activity (A good herbicidal activity is given at values of at least 80)

Reference: patent publication US20220251074A1, “HERBICIDAL AMIDES” (BASF SE, priority 2019, published 2022)
